Measured values from patent publication US11707539B2, “FAP-targeted radiopharmaceuticals and imaging agents, and uses related thereto” (Trustees of Tufts College, priority 2020, dated 2023).

Experiments:
[1] = test system: HEK-mFAP tumor-bearing mice; test: 68Ga dynamic PET/CT imaging; assay type: in vivo, mouse; details: dynamic PET over 60 min, IV bolus
Method: Part 1. Dynamic PET Imaging. The aim of the study is to perform ^68Ga-6555 PET/CT dynamic imaging in HEK-mFAP tumor-bearing mice to assess tumor uptake and retention over time, as well as non-specific uptake. HEK-mFAP tumor-bearing mice were used for the study (N=3). ^68Ga-6555 (prepared as per Example 20) PET imaging was carried out on a dedicated small animal PET/CT scanner (Siemens Multimodality Inveon, Siemens Medical Solutions USA, Inc.). The mice were anesthetized using 3% isoflurane/medical air inhalation prior to the radiotracer injection and throughout the scan duration. Warming was used to maintain healthy core body temperature of the mice during periods of unconsciousness. Following a bolus intravenous injection (via the lateral tail vein) of ^68Ga-6555 (average of 8 MBq, 7.7-8.1 MBq range), a dynamic emission scan was acquired in list mode format over 60 min. […] The reconstructed PET/CT images were analyzed with the Siemens Inveon Research Workplace software. The radioactivity retention within the selected tissue was obtained from mean voxel intensity values within the VOI and then converted to megabecquerels per milliliter using the calibration factor determined for the Inveon PET System. […] We used the maximum SUV value (SUVmax) within a VOI as a quantitative imaging metric which is independent of tissue intrinsic variations. […]

[2] = test system: HEK-mFAP tumor-bearing mice; test: 68Ga biodistribution, gamma counting after 50 min uptake; assay type: in vivo, mouse
Method: Part 2 Biodistribution. The aim of the study is to assess ^68Ga-6555 biodistribution in HEK-mFAP tumor-bearing mice. HEK-mFAP tumor-bearing mice were used for the study (N=3). The mice were injected with ˜8 MBq (7.3-8.5 MBq range) of ^68Ga-6555 (prepared as per Example 20; IV through the tail vein using a catheter mounted with a 30 Ga needle). After 50 min uptake time (injection was performed under anesthasia using isoflurane inhalant, and stayed under anesthesia for 50 min), the mice were euthanized (with CO2) and tissues were collected (blood via cardiac puncture, heart, lungs, liver, spleen, pancreas, stomach, small intestine, kidney, muscle, femur, bone, skin, brain, tumor). After excision, the tissue samples were counted for gallium-68 radioactivity on a Cobra-II Auto-Gamma counter (Packard Instruments, Meriden, CTA), weighted, and data were expressed as % injected dose per gram (% ID/g).
Conducted as per Example 24 using ^68Ga-6952 prepared as per Example 22.
Biodistribution. The mice were injected with ˜8.6 MBq (7.6-10.0 MBq range). The majority of activity was located in the tumor (average % ID/g of 8.8). The kidney has the next largest amount of activity (average % ID/g of 2.18). […]

C[C@@H](NC(=O)c1ccc(CNC(=O)CN2CCN3CCN4CCN(CC2)CC(=O)[O][Ga]([O]C(=O)C3)[O]C(=O)C4)cc1)C(=O)N1CCC[C@H]1B(O)O [[^68Ga]-6555]
time of accumulation in the tumor (time-vs-activity curve) [1]: < 5 min | time of reaching a plateau in the tumor [1]: 60 min | uptake in all other selected tissues ([2]; 50 min uptake time, IV): low level of uptake comparable to the muscle | % ID/g Blood, AVERAGE ([2]; Blood, 50 min uptake after IV injection, average of N=3 mice): 0.57 % ID/g | % ID/g Blood, mouse #002 ([2]; Blood, 50 min uptake, individual mouse #002): 0.67 % ID/g | % ID/g Blood, mouse #005 ([2]; Blood, 50 min uptake, individual mouse #005): 0.38 % ID/g | % ID/g Blood, mouse #009 ([2]; Blood, 50 min uptake, individual mouse #009): 0.64 % ID/g | % ID/g Bone (femur), AVERAGE ([2]; Bone (femur), 50 min uptake after IV injection, average of N=3 mice): 0.33 % ID/g | % ID/g Bone (femur), mouse #002 ([2]; Bone (femur), 50 min uptake, individual mouse #002): 0.31 % ID/g | % ID/g Bone (femur), mouse #005 ([2]; Bone (femur), 50 min uptake, individual mouse #005): 0.50 % ID/g | % ID/g Bone (femur), mouse #009 ([2]; Bone (femur), 50 min uptake, individual mouse #009): 0.20 % ID/g | % ID/g Brain, AVERAGE ([2]; Brain, 50 min uptake after IV injection, average of N=3 mice): 0.07 % ID/g | % ID/g Brain, mouse #002 ([2]; Brain, 50 min uptake, individual mouse #002): 0.03 % ID/g | % ID/g Brain, mouse #005 ([2]; Brain, 50 min uptake, individual mouse #005): 0.07 % ID/g | % ID/g Brain, mouse #009 ([2]; Brain, 50 min uptake, individual mouse #009): 0.10 % ID/g | % ID/g Heart, AVERAGE ([2]; Heart, 50 min uptake after IV injection, average of N=3 mice): 0.34 % ID/g | % ID/g Heart, mouse #002 ([2]; Heart, 50 min uptake, individual mouse #002): 0.41 % ID/g | % ID/g Heart, mouse #005 ([2]; Heart, 50 min uptake, individual mouse #005): 0.17 % ID/g | % ID/g Heart, mouse #009 ([2]; Heart, 50 min uptake, individual mouse #009): 0.43 % ID/g | % ID/g Kidneys, AVERAGE ([2]; Kidneys, 50 min uptake after IV injection, average of N=3 mice): 1.37 % ID/g | % ID/g Kidneys, mouse #002 ([2]; Kidneys, 50 min uptake, individual mouse #002): 1.50 % ID/g | % ID/g Kidneys, mouse #005 ([2]; Kidneys, 50 min uptake, individual mouse #005): 1.03 % ID/g | % ID/g Kidneys, mouse #009 ([2]; Kidneys, 50 min uptake, individual mouse #009): 1.58 % ID/g | % ID/g Liver, AVERAGE ([2]; Liver, 50 min uptake after IV injection, average of N=3 mice): 1.01 % ID/g | % ID/g Liver, mouse #002 ([2]; Liver, 50 min uptake, individual mouse #002): 1.00 % ID/g | % ID/g Liver, mouse #005 ([2]; Liver, 50 min uptake, individual mouse #005): 0.79 % ID/g | % ID/g Liver, mouse #009 ([2]; Liver, 50 min uptake, individual mouse #009): 1.23 % ID/g | % ID/g Lungs, AVERAGE ([2]; Lungs, 50 min uptake after IV injection, average of N=3 mice): 0.56 % ID/g | % ID/g Lungs, mouse #002 ([2]; Lungs, 50 min uptake, individual mouse #002): 0.62 % ID/g | % ID/g Lungs, mouse #005 ([2]; Lungs, 50 min uptake, individual mouse #005): 0.39 % ID/g | % ID/g Lungs, mouse #009 ([2]; Lungs, 50 min uptake, individual mouse #009): 0.67 % ID/g | % ID/g Muscle, AVERAGE ([2]; Muscle, 50 min uptake after IV injection, average of N=3 mice): 0.74 % ID/g | % ID/g Muscle, mouse #002 ([2]; Muscle, 50 min uptake, individual mouse #002): 0.09 % ID/g | % ID/g Muscle, mouse #005 ([2]; Muscle, 50 min uptake, individual mouse #005): 0.21 % ID/g | % ID/g Muscle, mouse #009 ([2]; Muscle, 50 min uptake, individual mouse #009): 1.92 % ID/g | % ID/g Pancreas, AVERAGE ([2]; Pancreas, 50 min uptake after IV injection, average of N=3 mice): 0.92 % ID/g | % ID/g Pancreas, mouse #002 ([2]; Pancreas, 50 min uptake, individual mouse #002): 1.41 % ID/g | % ID/g Pancreas, mouse #005 ([2]; Pancreas, 50 min uptake, individual mouse #005): 0.93 % ID/g | % ID/g Pancreas, mouse #009 ([2]; Pancreas, 50 min uptake, individual mouse #009): 0.42 % ID/g | % ID/g Skin, AVERAGE ([2]; Skin, 50 min uptake after IV injection, average of N=3 mice): 0.28 % ID/g | % ID/g Skin, mouse #002 ([2]; Skin, 50 min uptake, individual mouse #002): 0.31 % ID/g | % ID/g Skin, mouse #005 ([2]; Skin, 50 min uptake, individual mouse #005): 0.27 % ID/g | % ID/g Skin, mouse #009 ([2]; Skin, 50 min uptake, individual mouse #009): 0.25 % ID/g | % ID/g Small intestine, AVERAGE ([2]; Small intestine, 50 min uptake after IV injection, average of N=3 mice): 0.31 % ID/g | % ID/g Small intestine, mouse #002 ([2]; Small intestine, 50 min uptake, individual mouse #002): 0.39 % ID/g | % ID/g Small intestine, mouse #005 ([2]; Small intestine, 50 min uptake, individual mouse #005): 0.19 % ID/g | % ID/g Small intestine, mouse #009 ([2]; Small intestine, 50 min uptake, individual mouse #009): 0.35 % ID/g | % ID/g Spleen, AVERAGE ([2]; Spleen, 50 min uptake after IV injection, average of N=3 mice): 0.77 % ID/g | % ID/g Spleen, mouse #002 ([2]; Spleen, 50 min uptake, individual mouse #002): 0.23 % ID/g | % ID/g Spleen, mouse #005 ([2]; Spleen, 50 min uptake, individual mouse #005): 0.74 % ID/g | % ID/g Spleen, mouse #009 ([2]; Spleen, 50 min uptake, individual mouse #009): 1.34 % ID/g | % ID/g Stomach, AVERAGE ([2]; Stomach, 50 min uptake after IV injection, average of N=3 mice): 0.20 % ID/g | % ID/g Stomach, mouse #002 ([2]; Stomach, 50 min uptake, individual mouse #002): 0.07 % ID/g | % ID/g Stomach, mouse #005 ([2]; Stomach, 50 min uptake, individual mouse #005): 0.21 % ID/g | % ID/g Stomach, mouse #009 ([2]; Stomach, 50 min uptake, individual mouse #009): 0.32 % ID/g | % ID/g Tumor, AVERAGE ([2]; Tumor (HEK-mFAP), 50 min uptake after IV injection, average of N=3 mice): 10.10 % ID/g | % ID/g Tumor, mouse #002 ([2]; Tumor (HEK-mFAP), 50 min uptake, individual mouse #002): 10.01 % ID/g | % ID/g Tumor, mouse #005 ([2]; Tumor (HEK-mFAP), 50 min uptake, individual mouse #005): 8.47 % ID/g | % ID/g Tumor, mouse #009 ([2]; Tumor (HEK-mFAP), 50 min uptake, individual mouse #009): 11.83 % ID/g | average % ID/g ([2]; kidney, 50 min uptake time, IV): 1.37 % ID/g | average % ID/g ([2]; tumor, 50 min uptake time, IV): 10.1 % ID/g
